Patent US12281149B2, “Modulators of G-protein coupled receptors” (priority 2021, dated 2025)
*1 amine or outer side, *2 acyl side, *3 side chain or, on linkers, in order; H or OH if unused. Where a SMILES comes first, the peptide text is derived from it. Side-chain parts run from the residue outwards. [ ]: non-standard residue; d: D form. The star is where a group is joined. C20 diacid = O=C(O)CCCCCCCCCCCCCCCCCCC(=O)*; γGlu = O=C(O)[C@H](CCC(=O)[*:2])N[*:1]; X27 = O=C1CC(C(=O)*)(c2ccccc2)CN1; X40 = CC(C)(C(=O)*)n1cc(Cl)cn1; X83 = Cc1ccn(C(C)(C)C(=O)*)n1; X24 = O=C(C1(c2cccnc2)CCC1)*; AEEA = NCCOCCOCC(=O)O; Aib = CC(C)(N)C(=O)O; GABA = NCCCC(=O)O; βAla = NCCC(=O)O

What was measured:
GLP-1 receptor = GLP-1 receptor (Homo sapiens, UniProt P43220); test: HitHunter cAMP assay, GLP-1 receptor; assay type: cell-based; conditions: CHO cells, cAMP; normalized to maximum signal from GLP-1 (high) and DMSO (low); read-out: Emax GLP-1R
Sequence of GLP-1 receptor (P43220 24-463): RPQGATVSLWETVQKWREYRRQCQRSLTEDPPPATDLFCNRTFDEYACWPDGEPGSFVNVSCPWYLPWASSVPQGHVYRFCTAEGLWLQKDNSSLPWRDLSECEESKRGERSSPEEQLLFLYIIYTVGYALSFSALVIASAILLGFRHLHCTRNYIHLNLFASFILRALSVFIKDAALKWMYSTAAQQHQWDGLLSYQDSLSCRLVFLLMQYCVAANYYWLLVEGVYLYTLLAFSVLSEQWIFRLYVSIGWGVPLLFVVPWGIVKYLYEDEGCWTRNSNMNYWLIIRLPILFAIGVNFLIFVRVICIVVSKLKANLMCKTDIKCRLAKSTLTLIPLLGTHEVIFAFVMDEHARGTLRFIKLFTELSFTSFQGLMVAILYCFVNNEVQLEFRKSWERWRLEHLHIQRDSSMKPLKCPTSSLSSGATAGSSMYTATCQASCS

GIP receptor = target: T1, GIP receptor (Homo sapiens, UniProt P48546); test: HitHunter cAMP assay, GIP receptor; assay type: cell-based; conditions: CHO cells, cAMP; normalized to maximum signal from GIP (high) and DMSO (low); read-out: Emax GIP-1R
T1 sequence (P48546 22-466): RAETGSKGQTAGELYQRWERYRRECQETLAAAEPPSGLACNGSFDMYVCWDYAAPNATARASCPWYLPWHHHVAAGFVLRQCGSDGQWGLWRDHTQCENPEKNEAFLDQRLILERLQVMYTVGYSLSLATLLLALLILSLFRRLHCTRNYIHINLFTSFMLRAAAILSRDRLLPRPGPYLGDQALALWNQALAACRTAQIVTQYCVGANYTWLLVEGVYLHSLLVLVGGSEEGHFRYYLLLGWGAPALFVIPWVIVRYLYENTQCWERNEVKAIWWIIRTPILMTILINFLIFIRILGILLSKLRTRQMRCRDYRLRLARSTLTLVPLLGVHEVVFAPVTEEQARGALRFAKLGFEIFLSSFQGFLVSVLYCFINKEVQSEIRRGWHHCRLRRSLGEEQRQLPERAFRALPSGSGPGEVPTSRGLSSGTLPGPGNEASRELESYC

Work on `CC[C@H](C)[C@H](NC(=O)[C@H](CC(C)C)NC(=O)[C@H](Cc1c[nH]c2ccccc12)NC(=O)[C@H](CCC(N)=O)NC(=O)[C@@H](NC(=O)[C@H](Cc1ccccc1)NC(=O)[C@H](C)NC(=O)[C@H](CCCCNC(=O)COCCOCCNC(=O)COCCOCCNC(=O)CC[C@H](NC(=O)CCCCCCCCCCCCCCCCCCC(=O)O)C(=O)O)NC(=O)[C@H](CCC(N)=O)NC(=O)[C@H](C)NC(=O)[C@@H](NC(=O)[C@H](CCCCN)NC(=O)[C@H](CC(=O)O)NC(=O)[C@H](CC(C)C)NC(=O)C(C)(C)NC(=O)[C@@H](NC(=O)[C@H](CO)NC(=O)[C@H](Cc1ccc(O)cc1)NC(=O)[C@H](CC(=O)O)NC(=O)[C@H](CO)NC(=O)[C@@H](NC(=O)[C@H](Cc1ccccc1)NC(=O)[C@@H](NC(=O)CNC(=O)[C@H](CCC(=O)O)NC(=O)CCCNC(=O)C(C)(C)n1cc(Cl)cn1)[C@@H](C)O)[C@@H](C)O)[C@@H](C)CC)[C@@H](C)CC)C(C)C)C(=O)N[C@@H](C)C(=O)NCC(=O)NCC(=O)N1CCC[C@H]1C(=O)N[C@@H](CO)C(=O)N[C@@H](CO)C(=O)NCC(=O)N[C@@H](C)C(=O)N1CCC[C@H]1C(=O)N1CCC[C@H]1C(=O)N1CCC[C@H]1C(=O)N[C@@H](CO)C(N)=O` [Compound 248] ({X40-GABA}-EGTFTSDYSI[Aib]LDKIAQK([AEEA-AEEA-γGlu-C20 diacid])AFVQWLIAGGPSSGAPPPS-NH2; C-terminus assumed) yielded an Emax (GLP-1 receptor) of 90% and an Emax (GIP receptor) of 104%.
With `CC[C@H](C)[C@H](NC(=O)[C@H](CC(C)C)NC(=O)[C@H](Cc1c[nH]c2ccccc12)NC(=O)[C@H](CCC(N)=O)NC(=O)[C@@H](NC(=O)[C@H](Cc1ccccc1)NC(=O)[C@H](C)NC(=O)[C@H](CCCCNC(=O)COCCOCCNC(=O)COCCOCCNC(=O)CC[C@H](NC(=O)CCCCCCCCCCCCCCCCCCC(=O)O)C(=O)O)NC(=O)[C@H](CCC(N)=O)NC(=O)[C@H](C)NC(=O)[C@@H](NC(=O)[C@H](CCCCN)NC(=O)[C@H](CC(=O)O)NC(=O)[C@H](CC(C)C)NC(=O)C(C)(C)NC(=O)[C@@H](NC(=O)[C@H](CO)NC(=O)[C@H](Cc1ccc(O)cc1)NC(=O)[C@H](CC(=O)O)NC(=O)[C@H](CO)NC(=O)[C@@H](NC(=O)[C@H](Cc1ccccc1)NC(=O)[C@@H](NC(=O)CNC(=O)[C@H](CCC(=O)O)NC(=O)CCCNC(=O)C1(c2ccccc2)CNC(=O)C1)[C@@H](C)O)[C@@H](C)O)[C@@H](C)CC)[C@@H](C)CC)C(C)C)C(=O)N[C@@H](C)C(=O)NCC(=O)NCC(=O)N1CCC[C@H]1C(=O)N[C@@H](CO)C(=O)N[C@@H](CO)C(=O)NCC(=O)N[C@@H](C)C(=O)N1CCC[C@H]1C(=O)N1CCC[C@H]1C(=O)N1CCC[C@H]1C(=O)N[C@@H](CO)C(N)=O` (stereo partly drawn) [Compound 249] ({X27-GABA}-EGTFTSDYSI[Aib]LDKIAQK([AEEA-AEEA-γGlu-C20 diacid])AFVQWLIAGGPSSGAPPPS-NH2; C-terminus assumed) the Emax (GLP-1 receptor) was 97% and the Emax (GIP receptor) was 104%.
`CC[C@H](C)[C@H](NC(=O)[C@H](CC(C)C)NC(=O)[C@H](Cc1c[nH]c2ccccc12)NC(=O)[C@H](CCC(N)=O)NC(=O)[C@@H](NC(=O)[C@H](Cc1ccccc1)NC(=O)[C@H](C)NC(=O)[C@H](CCCCNC(=O)COCCOCCNC(=O)COCCOCCNC(=O)CC[C@H](NC(=O)CCCCCCCCCCCCCCCCCCC(=O)O)C(=O)O)NC(=O)[C@H](CCC(N)=O)NC(=O)[C@H](C)NC(=O)[C@@H](NC(=O)[C@H](CCCCN)NC(=O)[C@H](CC(=O)O)NC(=O)[C@H](CC(C)C)NC(=O)C(C)(C)NC(=O)[C@@H](NC(=O)[C@H](CO)NC(=O)[C@H](Cc1ccc(O)cc1)NC(=O)[C@H](CC(=O)O)NC(=O)[C@H](CO)NC(=O)[C@@H](NC(=O)[C@H](Cc1ccccc1)NC(=O)[C@@H](NC(=O)CNC(=O)[C@H](CCC(=O)O)NC(=O)CCNC(=O)C1(c2ccccc2)CNC(=O)C1)[C@@H](C)O)[C@@H](C)O)[C@@H](C)CC)[C@@H](C)CC)C(C)C)C(=O)N[C@@H](C)C(=O)NCC(=O)NCC(=O)N1CCC[C@H]1C(=O)N[C@@H](CO)C(=O)N[C@@H](CO)C(=O)NCC(=O)N[C@@H](C)C(=O)N1CCC[C@H]1C(=O)N1CCC[C@H]1C(=O)N1CCC[C@H]1C(=O)N[C@@H](CO)C(N)=O` (stereo partly drawn) [Compound 250] ({X27-βAla}-EGTFTSDYSI[Aib]LDKIAQK([AEEA-AEEA-γGlu-C20 diacid])AFVQWLIAGGPSSGAPPPS-NH2; C-terminus assumed) showed an Emax (GLP-1 receptor) of 90% and an Emax (GIP receptor) of 89%.
In the case of `CC[C@H](C)[C@H](NC(=O)[C@H](CC(C)C)NC(=O)[C@H](Cc1c[nH]c2ccccc12)NC(=O)[C@H](CCC(N)=O)NC(=O)[C@@H](NC(=O)[C@H](Cc1ccccc1)NC(=O)[C@H](C)NC(=O)[C@H](CCCCNC(=O)COCCOCCNC(=O)COCCOCCNC(=O)CC[C@H](NC(=O)CCCCCCCCCCCCCCCCCCC(=O)O)C(=O)O)NC(=O)[C@H](CCC(N)=O)NC(=O)[C@H](C)NC(=O)[C@@H](NC(=O)[C@H](CCCCN)NC(=O)[C@H](CC(=O)O)NC(=O)[C@H](CC(C)C)NC(=O)C(C)(C)NC(=O)[C@@H](NC(=O)[C@H](CO)NC(=O)[C@H](Cc1ccc(O)cc1)NC(=O)[C@H](CC(=O)O)NC(=O)[C@H](CO)NC(=O)[C@@H](NC(=O)[C@H](Cc1ccccc1)NC(=O)[C@@H](NC(=O)CNC(=O)[C@H](CCC(=O)O)NC(=O)CCCNC(=O)C1(c2cccnc2)CCC1)[C@@H](C)O)[C@@H](C)O)[C@@H](C)CC)[C@@H](C)CC)C(C)C)C(=O)N[C@@H](C)C(=O)NCC(=O)NCC(=O)N1CCC[C@H]1C(=O)N[C@@H](CO)C(=O)N[C@@H](CO)C(=O)NCC(=O)N[C@@H](C)C(=O)N1CCC[C@H]1C(=O)N1CCC[C@H]1C(=O)N1CCC[C@H]1C(=O)N[C@@H](CO)C(N)=O` [Compound 251] ({X24-GABA}-EGTFTSDYSI[Aib]LDKIAQK([AEEA-AEEA-γGlu-C20 diacid])AFVQWLIAGGPSSGAPPPS-NH2; C-terminus assumed), the Emax (GLP-1 receptor) was 91% and the Emax (GIP receptor) was 92%.
`CC[C@H](C)[C@H](NC(=O)[C@H](CC(C)C)NC(=O)[C@H](Cc1c[nH]c2ccccc12)NC(=O)[C@H](CCC(N)=O)NC(=O)[C@@H](NC(=O)[C@H](Cc1ccccc1)NC(=O)[C@H](C)NC(=O)[C@H](CCCCNC(=O)COCCOCCNC(=O)COCCOCCNC(=O)CC[C@H](NC(=O)CCCCCCCCCCCCCCCCCCC(=O)O)C(=O)O)NC(=O)[C@H](CCC(N)=O)NC(=O)[C@H](C)NC(=O)[C@@H](NC(=O)[C@H](CCCCN)NC(=O)[C@H](CC(=O)O)NC(=O)[C@H](CC(C)C)NC(=O)C(C)(C)NC(=O)[C@@H](NC(=O)[C@H](CO)NC(=O)[C@H](Cc1ccc(O)cc1)NC(=O)[C@H](CC(=O)O)NC(=O)[C@H](CO)NC(=O)[C@@H](NC(=O)[C@H](Cc1ccccc1)NC(=O)[C@@H](NC(=O)CNC(=O)[C@H](CCC(=O)O)NC(=O)CCCNC(=O)C(C)(C)n1ccc(C)n1)[C@@H](C)O)[C@@H](C)O)[C@@H](C)CC)[C@@H](C)CC)C(C)C)C(=O)N[C@@H](C)C(=O)NCC(=O)NCC(=O)N1CCC[C@H]1C(=O)N[C@@H](CO)C(=O)N[C@@H](CO)C(=O)NCC(=O)N[C@@H](C)C(=O)N1CCC[C@H]1C(=O)N1CCC[C@H]1C(=O)N1CCC[C@H]1C(=O)N[C@@H](CO)C(N)=O` [Compound 252] ({X83-GABA}-EGTFTSDYSI[Aib]LDKIAQK([AEEA-AEEA-γGlu-C20 diacid])AFVQWLIAGGPSSGAPPPS-NH2; C-terminus assumed) was tested, and the Emax (GLP-1 receptor) was 90% and the Emax (GIP receptor) was 100%.
In the case of `CC[C@H](C)[C@H](NC(=O)[C@H](CC(C)C)NC(=O)[C@H](Cc1c[nH]c2ccccc12)NC(=O)[C@H](CCC(N)=O)NC(=O)[C@@H](NC(=O)[C@H](Cc1ccccc1)NC(=O)[C@H](C)NC(=O)[C@H](CCCCNC(=O)COCCOCCNC(=O)COCCOCCNC(=O)CC[C@H](NC(=O)CCCCCCCCCCCCCCCCCCC(=O)O)C(=O)O)NC(=O)[C@H](CCC(N)=O)NC(=O)[C@H](C)NC(=O)[C@@H](NC(=O)[C@H](CCCCN)NC(=O)[C@H](CC(=O)O)NC(=O)[C@H](CC(C)C)NC(=O)C(C)(C)NC(=O)[C@@H](NC(=O)[C@H](CO)NC(=O)[C@H](Cc1ccc(O)cc1)NC(=O)[C@H](CC(=O)O)NC(=O)[C@H](CO)NC(=O)[C@@H](NC(=O)[C@H](Cc1ccccc1)NC(=O)[C@@H](NC(=O)CNC(=O)[C@H](CCC(=O)O)NC(=O)CCNC(=O)C(C)(C)n1ccc(C)n1)[C@@H](C)O)[C@@H](C)O)[C@@H](C)CC)[C@@H](C)CC)C(C)C)C(=O)N[C@@H](C)C(=O)NCC(=O)NCC(=O)N1CCC[C@H]1C(=O)N[C@@H](CO)C(=O)N[C@@H](CO)C(=O)NCC(=O)N[C@@H](C)C(=O)N1CCC[C@H]1C(=O)N1CCC[C@H]1C(=O)N1CCC[C@H]1C(=O)N[C@@H](CO)C(N)=O` [Compound 253] ({X83-βAla}-EGTFTSDYSI[Aib]LDKIAQK([AEEA-AEEA-γGlu-C20 diacid])AFVQWLIAGGPSSGAPPPS-NH2; C-terminus assumed), the Emax (GLP-1 receptor) was 94% and the Emax (GIP receptor) was 105%.
